The values below come from patent publication US20200383985A1, “Inhibitors of Protease Activated Receptor-2” (Endosome Therapeutics, Inc., priority 2017, published 2020).

For one assay, the system named is PKC and cAMP. Nature of the assay: FRET assays of PKC and cAMP in HEK293 cells. Type of assay: cell-based. The conditions noted are these: HEK293 cells. Here is the method: I-343, but not SCH530348, inhibited trypsin stimulation of PKC and cAMP, which thus depend on PAR2 (FIGS. 19G and H). […] The sustained plasma membrane cAMP response to trypsin support the existence of mechanisms that allow persistent PAR2 signaling, which warrant further investigation.
HEK293 cells were cultured in DMEM supplemented with 10% (v/v) FBS (5% CO2, 37° C.). When necessary serum restriction was achieved by replacing culture medium with DMEM containing 0.5% FBS overnight. Cells were transiently transfected using polyethylenimine (PEI) (1:6 DNA:PEI).
HEK293 cells were transiently transfected in 10 cm dishes (˜50% confluency) with Flag-PAR2-HA (2.5 μg) and FRET biosensors CytoEKAR or NucEKAR (2.5 μg) (Jensen, D. D. et al., Sci Transl Med. 2017, 9(392), eaal3447; Thomsen, A. R. B., et al., Cell 2016, 166(4): 907-919). In experiments examining the role of dynamin, cells were transfected with FLAG-PAR2-HA (1.25 μg), FRET biosensor (1.25 μg) and either DynWT-HA, DynK44E-HA or pcDNA3.1 (2.5 μg). At 24 h after transfection, cells were seeded on ViewPlate-96 well plates (PerkinElmer). FRET was assessed 72 h post-transfection, following overnight serum restriction. Cells were equilibrated in HBSS-HEPES (30 min, 37° C.). FRET was measured using a PHERAstar FSX Microplate Reader (BMG LabTech). For CFP/YFP emission ratio analysis, cells were sequentially excited using a CFP filter (425/10 nm) with emission measured using YFP (550/50 nm) and CFP (490/20 nm) filters. FRET was measured before and after stimulation with trypsin (10 nM), NE (100 nM), CS (100 nM), phorbol 12,13-dibutyrate, PDBu (positive control, 1 μM), or vehicle. FRET ratios (donor/acceptor intensity for EKAR, or acceptor/donor intensity for CKAR and Epac) were calculated and corrected to baseline and vehicle treatments to determine ligand-induced FRET (ΔFRET). Treatment effects were determined by comparison of area under the curve values. Signalling inhibitors were dissolved in HBSS-HEPES. PS2 and PS2 inact were dissolved in HBSS-HEPES+1% DMSO. […]

The test system of the next assay is PKC and ERK activity. Briefly: FRET assays of compartmentalized PKC and ERK in DRG neurons. It counts as cell-based, rat. The conditions noted are these: I-343 10 μM, SCH530348 100 nM. Here is the method: To determine whether trypsin causes PAR2-dependent activation of PKC and ERK, which respectively mediate initial and persistent trypsin-induced hyperexcitability of nociceptors, genetically-encoded Förster Resonance Energy Transfer (FRET) biosensors were expressed in neurons. […] Trypsin (10 or 100 nM) activated PKC at the plasma membrane but not in the cytosol (FIG. 4E-G), and activated ERK in the cytosol and nucleus (FIG. 4H-J). The PAR2 antagonist I-343 (10 μM) inhibited trypsin-induced activation of PKC and ERK, whereas the PAR1 antagonist SCH530348 (100 nM) had no effect (FIG. 4F, I). At the end of experiments, neurons were challenged with the positive controls phorbol 12,13-dibutyrate (PDBu) for EKAR biosensors or PDBu plus phosphatase inhibitor mixture-2 for CKAR biosensors, to ensure that the response of the biosensor was not saturated.
DRG were collected from C57BL/6 mice and Sprague-Dawley rats (all levels). DRG were incubated with collagenase IV (2 mg/ml) and dispase II (1 mg/ml) for 30 min (mice) and 45 min (rats) at 37° C. DRG were dispersed by trituration with a fire-polished Pasteur pipette. Dissociated neurons were transfected with mPAR2-GFP (1 μg), the FRET biosensors CytoEKAR, NucEKAR, pmCKAR or CytoCKAR (all […]), or with the BRET biosensors PAR2-RLuc8 (125 ng) and βARR2-FYP (475 ng) using the Lonza 4D-Nucleofector X unit according to the manufacturer's instructions. Neurons were plated on laminin- (0.004 mg/ml) and poly-L-Lysine- (0.1 mg/ml) coated glass coverslips for confocal microscopy, on ViewPlate-96 plates (PerkinElmer) for FRET assays, or on CulturPlates (PerkinElmer) for BRET assays. Neurons were maintained in Dulbecco's modified Eagle medium (DMEM) containing 10% fetal bovine serum (FBS), antibiotic-antimitotic, and N1 supplement for 48 h before study.
Rat DRG neurons expressing FRET biosensors were serum-restricted (0.5% FBS overnight), and equilibrated in HBSS-HEPES (10 mM HEPES, pH 7.4, 30 min, 37° C.). FRET was analyzed using an Operetta CLS High-Content Imaging System (PerkinElmer) or an INCell Analyzer 2000 G E Healthcare Life Sciences). For CFP/YFP emission ratio analysis, cells were sequentially excited using a CFP filter (410-430 nm) with emission measured using YFP (520-560 nm) and CFP (460-500 nm) filters. Cells were imaged at 1 or 2 min intervals. Baseline was measured, neurons were challenged with trypsin (10 or 100 nM) or vehicle, and responses recorded for a further 30 min. Neurons were then challenged with phorbol 12,13-dibutyrate (PDBu, 200 nM, 10 min) for EKAR biosensors or PDBu (200 nM) and phosphatase inhibitor cocktail-2 (SigmaAldrich, 10 min) for CKAR biosensors. Data were analyzed using Harmony 4.1 or Image J 1.51 software. Images taken were aligned, cells were selected based on diameter, and fluorescence intensity was calculated for both FRET and CFP channels. Background intensity was subtracted and the FRET ratio was determined as the change in the FRET/donor (EKAR) or donor/FRET (CKAR) emission ratio relative to the baseline for each cell (F/Fo). Cells with >5% changes in F/F0 after PDBu stimulation were selected for analysis. Neurons were incubated with I-343 (10 μM), SCH530348 (100 nM) or vehicle (30 min, 37° C. preincubation and inclusion throughout).

Turning to `CCOC(=O)N[C@@H]1CC[C@@H]2[C@@H](C1)C[C@H]1C(=O)O[C@H](C)[C@H]1[C@H]2/C=C/c1ccc(-c2cccc(F)c2)cn1` [SCH530348], in the assay on PKC and cAMP, the “trypsin stimulation of PKC and cAMP” value is “not”. For the same compound, the “trypsin-induced activation of PKC and ERK” value with PKC and ERK activity is given as “no effect”.
